From publication PMC9105976, “A Novel β-Hairpin Peptide Z-d14CFR Enhances Multidrug-Resistant Bacterial Clearance in a Murine Model of Mastitis” (International Journal of Molecular Sciences, 2022)
Marks after values point to notes of the source that are not given here. No end group written: not given here.

Experiments:
[1] = test system: Bacillus cereus CAU 202020; assay: MIC/MBC, microdilution broth method; type: cell-based; conditions: Bacillus cereus CAU 202020 (MDR isolate)
In short: (§1)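 Peptides were tested by microdilution against a 1 × 10^6 CFU/mL suspension in 10 mM PBS, each agent added at an equal volume within 0.001–2 mg/mL; ampicillin and gentamicin served as comparators.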

[2] = test system: Escherichia coli ATCC25922; assay: MIC/MBC, microdilution broth method; type: cell-based; conditions: Escherichia coli ATCC25922
In short: as §1

[3] = test system: Escherichia coli CAU 201919; assay: MIC/MBC, microdilution broth method; type: cell-based; conditions: Escherichia coli CAU 201919 (MDR isolate)
In short: as §1

[4] = test system: Escherichia coli CAU 201920; assay: MIC/MBC, microdilution broth method; type: cell-based; conditions: Escherichia coli CAU 201920 (MDR isolate)
In short: as §1

[5] = test system: Escherichia coli CVCC1450; assay: MIC/MBC, microdilution broth method; type: cell-based; conditions: Escherichia coli CVCC1450
In short: as §1

[6] = test system: Klebsiella pneumoniae CAU202084; assay: MIC/MBC, microdilution broth method; type: cell-based; conditions: Klebsiella pneumoniae CAU202084 (MDR isolate)
In short: as §1

[7] = test system: Proteus vulgaris CVCC1971; assay: MIC/MBC, microdilution broth method; type: cell-based; conditions: Proteus vulgaris CVCC1971
In short: as §1

[8] = test system: Salmonella typhimurium ATCC14028; assay: MIC/MBC, microdilution broth method; type: cell-based; conditions: Salmonella typhimurium ATCC14028
In short: as §1

[9] = test system: Staphylococcus aureus ATCC29213; assay: MIC/MBC, microdilution broth method; type: cell-based; conditions: Staphylococcus aureus ATCC29213
In short: as §1

[10] = test system: Staphylococcus haemolyticus CAU202078; assay: MIC/MBC, microdilution broth method; type: cell-based; conditions: Staphylococcus haemolyticus CAU202078 (MDR isolate)
In short: as §1

[11] = test system: Streptococcus suis CVCC3307; assay: MIC/MBC, microdilution broth method; type: cell-based; conditions: Streptococcus suis CVCC3307
In short: as §1

MRSA ATCC33591 = assay: MIC/MBC, microdilution broth method; type: cell-based, S. aureus
In short: as §1

[12] = test system: Gram-positive and Gram-negative bacteria; assay: Antimicrobial activity, statements over the bacterial panel; type: cell-based; conditions: data not shown
Protocol: The MIC of peptides against bacteria was carried out by the microdilution broth method. The bacterial culture (OD 600 = 0.6) was diluted in 10 mM PBS to 1 × 10^6 CFU/mL. […]

[13] = Retention time of peptide in HPLC (hydrophobicity); type: physicochemical; conditions: used as measure of hydrophobicity (order Z-d14CR > Z-d14CF > Z-d13 > Z-d14CFR > Z-d14C); column and gradient not given
[14] = 1 × 10^6 CFU/mL, 18 h at 37 °C, NA = no antimicrobial activity at 1 mg/mL
[15] = kills 99.9% bacteria, NA = no activity at 1 mg/mL
[16] = minimum concentration which kills 99.9% bacteria, NA = no activity at 1 mg/mL

In the case of “GGYCNSKSVCVCR-NH2 (disulfide (positions not given here)) [Z-d13, Z. atratus defensin β-sheet region analogue, …-NH2]”, the MIC [1, 14] is reported as “NA (NA) (No antimicrobial activity at 1 mg/mL)”, the MBC [1, 15] is reported as “NA (NA) (No antimicrobial activity at 1 mg/mL)” and the MIC [2, 14] is reported as “NA (NA) ^c (No antimicrobial activity at 1 mg/mL)”. The MBC [2, 16] was “NA (NA) ^c (No antimicrobial activity at 1 mg/mL)”, the MIC [3, 14] was “NA (NA) (No antimicrobial activity at 1 mg/mL)” and the MBC [3, 15] was “NA (NA) (No antimicrobial activity at 1 mg/mL)”. The MIC [4, 14] was “NA (NA) (No antimicrobial activity at 1 mg/mL)”, the MBC [4, 15] was “NA (NA) (No antimicrobial activity at 1 mg/mL)” and the MIC [5, 14] was “NA (NA) (No antimicrobial activity at 1 mg/mL)”. The MBC [5, 16] was “NA (NA) (No antimicrobial activity at 1 mg/mL)”, the MIC [6, 14] was “NA (NA) (No antimicrobial activity at 1 mg/mL)” and the MBC [6, 15] was “NA (NA) (No antimicrobial activity at 1 mg/mL)”. The MIC [7, 14] was “NA (NA) (No antimicrobial activity at 1 mg/mL)”, the MBC [7, 15] was “NA (NA) (No antimicrobial activity at 1 mg/mL)” and the MIC [8, 14] was “NA (NA) (No antimicrobial activity at 1 mg/mL)”. For the same substance, the MBC [8, 15] was “NA (NA) (No antimicrobial activity at 1 mg/mL)”, the MIC [9, 14] was “NA (NA) (No antimicrobial activity at 1 mg/mL)” and the MBC [9, 15] was “NA (NA) (No antimicrobial activity at 1 mg/mL)”. The MIC [10, 14] was “NA (NA) (No antimicrobial activity at 1 mg/mL)”, the MBC [10, 15] was “NA (NA) (No antimicrobial activity at 1 mg/mL)” and the MIC [11, 14] was “NA (NA) (No antimicrobial activity at 1 mg/mL)”. The MBC [11, 15] was “NA (NA) (No antimicrobial activity at 1 mg/mL)”, the MIC (MRSA ATCC33591; MRSA (methicillin-resistant S. aureus) ATCC33591, 1 × 10^6 CFU/mL, 18 h at 37 °C, NA = no antimicrobial activity at 1 mg/mL) was “NA (NA) (No antimicrobial activity at 1 mg/mL)” and the MBC (MRSA ATCC33591; MRSA ATCC33591, kills 99.9% bacteria, NA = no activity at 1 mg/mL) was “NA (NA) (No antimicrobial activity at 1 mg/mL)”. The “activity against bacteria at 3 mg/mL” value [12] was “slight activity” and the “RT, retention time of peptide in HPLC” value [13] was 9.077 min.
